Values of other authors in patent US20160311826A1, “SGC STIMULATORS” (IRONWOOD PHARMACEUTICALS, INC., priority 2013, published 2016).

Experiments:
[1] = system: obese mice; details: cited from earlier work
[2] = system: NO-deficient rats; details: cited from earlier work

For `O=C(O)CCCCN(CCc1cc(F)ccc1OCc1ccc(-c2ccc(C(F)(F)F)cc2)cc1)Cc1ccc(C(=O)O)cc1` [BAY 60-2770], the overactive bladder [1] is listed as “ameliorates overactive bladder in obese mice”.
In the case of `Nc1nc(-c2nn(Cc3ccccc3F)c3ncccc23)ncc1C1CC1` [BAY-2272], the bladder dysfunction [2] is given as “protective effects”.
